Measured values: patent publication US10793576B2, “Compound used as Bruton's tyrosine kinase inhibitor and preparation method and application thereof” (Chengdu Brilliant Pharmaceutical Co., LTD., priority 2017, dated 2020)
Like-named read-outs stand apart in the source and are kept apart here.

Experiments:
[1] = target: BTK kinase (Homo sapiens (Human), UniProt Q06187); test: In vitro assay for the inhibition of BTK kinase activity (Mobility-Shift Assay); format: biochemical
Excerpt: Mobility-Shift Assay, which is microfluidic chip technology, applies the basic concept of capillary electrophoresis to microfluidic environments. The substrate used for the experiment is a polypeptide with a fluorescent label. Under the action of enzyme in the reaction system, the substrate is transformed into a product, and the charge the substrate carries also changes accordingly. The use of the charge difference between the substrate and the product involved in Mobility-Shift Assay achieves the separating of the two, and they are tested respectively. The test results are expressed by conversion rates.
(3) 100% DMSO was added to the positive control well and the negative control well, respectively;

[2] = tested on: DOHH2 cells; test: Cell proliferation inhibition in vitro, DOHH2 cells by CTG assay; format: cell-based; conditions: read-out: Inhibitions of cell activities IC50 (nM) DOHH2
Method: (§1) Test Example 2: Determination of the Inhibition of Cell Proliferation Inhibitory Activity in
(§2) vitro of compounds using different cell lines
(§3) 2: Preparation of the Compounds:
(§4) The compounds to be tested were diluted with DMSO to prepare a mother liquor at a final concentration of 10 mM for later use.
3.2 Test of DOHH2 Cells by CTG Assay
(§5) Logarithmic growth phase cells were collected, counted and resuspended in complete medium. The cell concentration was adjusted to a suitable concentration (determined according to the cell density optimization test results), and seeded to 96-well plate and 100 μl of the cell suspension was added to each well. The cells were incubated in an incubator at 37° C., 100% relative humidity and 5% C02 for 24 hours.
The compounds to be tested were diluted with the medium to the set corresponding action concentration, and the cells were added at 10 µl/well. The cells were incubated in an incubator set at 37° C., 100% relative humidity and 5% C02 for 72 hours.
The medium was aspirated and discarded, and 30 μl of test reagent was added. The plate was gentle shaken away from the light to lyse the cells.
(§6) As: OA of the sample (cell+test reagent+test compound)
(§7) Ac: OA of the negative control (cell+test reagent+DMSO)
(§8) Ab: OA of the positive control (medium+test reagent+DMSO)
(§9) IC50 curve fitting was performed using the software Graphpad Prism 5 or XLfit and IC50 values were calculated.

[3] = tested on: TMD8 cells; test: Cell proliferation inhibition in vitro, TMD8 cells by CCK-8 method; format: cell-based; conditions: 72 hours, read-out: Inhibitions of cell activities IC50 (nM) TMD8
Method: as §1, §2, §3, §4
(§10) 3.1. Test of TMD8 and OCI-ly10 Cells by CCK-8 Method
as §5
(§11) The compounds to be tested were diluted with the medium to the set corresponding action concentration, and the cells were added at 25 µl/well. The cells were incubated in an incubator at 37° C., 100% relative humidity and 5% C02 for 72 hours.
(§12) The medium was aspirated and discarded, and a complete medium containing 10% of the test reagent was added and the obtained system was incubated in a 37° C. incubator for 1 hour-4 hours.
as §6, §7, §8, §9

[4] = tested on: OCI-LY10 cells; test: Cell proliferation inhibition in vitro, OCI-ly10 cells by CCK-8 method; format: cell-based; conditions: 72 hours, read-out: Inhibitions of cell activities IC50 (nM) OCI-LY10
Method: as §1, §2, §3, §4, §10, §5, §11, §12, §6, §7, §8, §9

BTK kinase, sequence (Q06187 whole entry): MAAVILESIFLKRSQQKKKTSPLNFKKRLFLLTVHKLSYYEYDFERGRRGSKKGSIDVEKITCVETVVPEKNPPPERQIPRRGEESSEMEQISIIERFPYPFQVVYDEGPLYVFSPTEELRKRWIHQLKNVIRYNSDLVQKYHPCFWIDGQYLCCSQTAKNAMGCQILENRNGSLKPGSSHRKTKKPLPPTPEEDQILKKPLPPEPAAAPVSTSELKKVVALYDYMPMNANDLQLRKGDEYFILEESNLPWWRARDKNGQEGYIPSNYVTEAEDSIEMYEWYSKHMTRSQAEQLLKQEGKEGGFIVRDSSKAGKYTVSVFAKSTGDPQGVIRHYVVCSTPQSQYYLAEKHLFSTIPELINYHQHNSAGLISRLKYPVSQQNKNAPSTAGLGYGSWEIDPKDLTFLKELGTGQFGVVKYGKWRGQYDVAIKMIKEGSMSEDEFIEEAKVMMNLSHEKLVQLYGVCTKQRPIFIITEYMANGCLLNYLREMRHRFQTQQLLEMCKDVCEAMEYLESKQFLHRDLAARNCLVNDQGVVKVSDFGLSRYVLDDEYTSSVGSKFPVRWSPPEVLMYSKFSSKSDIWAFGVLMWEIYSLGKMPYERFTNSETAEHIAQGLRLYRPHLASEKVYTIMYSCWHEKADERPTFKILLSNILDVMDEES

Row | Compound | IC50 [1] | IC50 ([2]; Homo sapiens, DOHH-2, 72 hours) | IC50 ([3]; Homo sapiens) | IC50 ([4]; Homo sapiens) | IC50 ([2]; 72 hours) | IC50 [3] | IC50 [4]
1 | CC#CC(=O)N1C2CN[C@@H](C2)C1c1nc(-c2ccc(C(=O)Nc3cc(C(F)(F)F)ccn3)cc2)c2c(N)nccn12 (stereo partly shown) [Example 53] | 1.8 nM | 166 nM | 0.75 nM | 1.3 nM |  |  | 
2 | CC#CC(=O)N1C2C[C@@H](C1c1nc(-c3ccc(Oc4ccccc4)cc3)c3c(N)nccn13)N(C(C)C)C2 (stereo partly shown) [Example 111] | 30 nM | 672 nM | 4.3 nM | 2.1 nM |  |  | 
3 | CC#CC(=O)N1C[C@H]2[C@@H](C1c1nc(-c3ccc(C(=O)Nc4cc(C(F)(F)F)ccn4)cc3)c3c(N)nccn13)C2(C)C (stereo partly shown) [Example 45] | 17 nM | 285 nM | 6.4 nM | 1.1 nM |  |  | 
4 | C=CC(=O)N1C2CN[C@@H](C2)C1c1nc(-c2ccc(C(=O)Nc3cc(C(F)(F)F)ccn3)cc2)c2c(N)nccn12 (stereo partly shown) [Example 52] | 2.4 nM | 174 nM | 6.4 nM | 0.35 nM |  |  | 
5 | CC#CC(=O)N1CC2CC1(c1nc(-c3ccc(C(=O)Nc4ccccn4)cc3)c3c(N)nccn13)CO2 (stereo not shown) [Example 10] | 72 nM | > 1000 nM | 6.3 nM | 2.1 nM |  |  | 
6 | C=CC(=O)N1CC2(CC2)C[C@H]1c1nc(-c2cccc(C(=O)Nc3ccccn3)c2)c2c(N)nccn12 [Example 124, (S)-3-(3-(5-acryloyl-5-azaspiro[2.4]heptan-6-yl)-8-aminoimidazo[1,5-a]pyrazin-1-yl)-N-(pyridin-2-yl)benzamide] | 18 nM | 629 nM | 11.8 nM | 1.5 nM |  |  | 
7 | CC#CC(=O)N1C2CCC1(c1nc(-c3ccc(C(=O)Nc4ccccn4)cc3)c3c(N)nccn13)COC2 (stereo not shown) [Example 12] | 14 nM | 129 nM | 4.3 nM | 7.4 nM |  |  | 
8 | C=CC(=O)N1C2CN[C@@H](C2)C1c1nc(-c2ccc(Oc3ccccc3)cc2)c2c(N)nccn12 (stereo partly shown) [Example 106] | 47 nM | > 1000 nM | 21.4 nM | 0.78 nM |  |  | 
9 | C=CC(=O)N1C2CCC1(c1nc(-c3ccc(Oc4ccccc4)cc3)c3c(N)nccn13)COC2 (stereo not shown) [Example 104] | 4.6 nM | 718 nM | 3.6 nM | 0.42 nM |  |  | 
10 | C=CC(=O)N1C2C[C@@H](C1c1nc(-c3ccc(C(=O)Nc4cc(C(F)(F)F)ccn4)cc3)c3c(N)nccn13)N(C(C)C)C2 (stereo partly shown) [Example 55] | 2.3 nM | 97 nM | 0.48 nM | 1.87 nM |  |  | 
11 | CC#CC(=O)N1CC2CCCC2C1c1nc(-c2ccc(C(=O)Nc3ccccn3)cc2)c2c(N)nccn12 (stereo not shown) [Example 4] | 4.5 nM | 673 nM | 2.1 nM | 3.5 nM |  |  | 
12 | CC#CC(=O)N1C2CN[C@@H](C2)C1c1nc(-c2ccc(C(=O)Nc3ccccn3)cc2)c2c(N)nccn12 (stereo partly shown) [Example 14] | 12.5 nM | > 1000 nM | 7.5 nM | 1.8 nM |  |  | 
13 | CN(C)C/C=C/C(=O)N1CC2(CC2)C[C@H]1c1nc(-c2ccc(C(=O)Nc3ccccn3)cc2)c2c(N)nccn12 [Example 112, (S,E)-4-(8-amino-3-(5-(4-(dimethylamino)but-2-enoyl)-5-azaspiro[2.4]heptan-6-yl)imidazo[1,5-a]pyrazin-1-yl)-N-(pyridin-2-yl)benzamide] | 21 nM | 902 nM | 0.31 nM | 0.41 nM |  |  | 
14 | CC#CC(=O)N1CC2CCCC2C1c1nc(-c2ccc(Oc3ccccc3)cc2)c2c(N)nccn12 (stereo not shown) [Example 97] | 2.8 nM | > 1000 nM | 6.2 nM | 0.4 nM |  |  | 
15 | C=CC(=O)N1C2C[C@@H](C1c1nc(-c3ccc(Oc4ccccc4)cc3)c3c(N)nccn13)N(C(C)C)C2 (stereo partly shown) [Example 109] | 19 nM | 184 nM | 7.2 nM | 0.31 nM |  |  | 
16 | C=CC(=O)N1C2CC[C@@H](C2)C1c1nc(-c2ccc(C(=O)Nc3cc(Cl)ccn3)cc2)c2c(N)nccn12 (stereo partly shown) [Example 70] | 2.4 nM | 677 nM | 6.8 nM | 3.2 nM |  |  | 
17 | C=CC(=O)N1CC2(CC2)C[C@H]1c1nc(-c2ccc(C(C)(O)c3ccccc3)cc2)c2c(N)nccn12 (stereo partly drawn) [Example 74, 1-((6S)-6-(8-amino-1-(4-(1-hydroxy-1-phenylethyl)phenyl)imidazo[1,5-a]pyrazin-3-yl)-5-azaspiro[2.4]heptan-5-yl)prop-2-en-1-one] | 24 nM | 72 nM | 9.7 nM | 3.5 nM |  |  | 
18 | C=CC(=O)N1CC2(CC2)C[C@H]1c1nc(-c2ccccc2C(=O)Nc2ccccn2)c2c(N)nccn12 [Example 125, (S)-2-(3-(5-acryloyl-5-azaspiro[2.4]heptan-6-yl)-8-aminoimidazo[1,5-a]pyrazin-1-yl)-N-(pyridin-2-yl)benzamide] | 58 nM | > 1000 nM | 24.9 nM | 8.7 nM |  |  | 
19 | CC#CC(=O)N1C2CC[C@@H](C2)C1c1nc(-c2ccc(C(C)(O)c3ccccc3)cc2)c2c(N)nccn12 (stereo partly shown) [Example 80] | 24 nM | 618 nM | 4.3 nM | 0.67 nM |  |  | 
20 | C=CC(=O)N1C2CCC1(c1nc(-c3ccc(C(C)(O)c4ccccc4)cc3)c3c(N)nccn13)COC2 (stereo not shown) [Example 84] | 16.3 nM | 48 nM | 6.8 nM | 4.2 nM |  |  | 
21 | C=CC(=O)N1CC2(CC2)C[C@H]1c1nc(-c2ccc(Oc3ccccc3)cc2)c2c(N)nccn12 [Example 93, (S)-1-(6-(8-amino-1-(4-phenoxyphenyl)imidazo[1,5-a]pyrazin-3-yl)-5-azaspiro[2.4]heptan-5-yl)prop-2-en-1-one] | 3.6 nM | 318 nM | 0.65 nM | 0.53 nM |  |  | 
22 | CC#CC(=O)N1C2CCC1(c1nc(-c3ccc(C(C)(O)c4ccccc4)cc3)c3c(N)nccn13)COC2 (stereo not shown) [Example 85] | 9.4 nM | 96 nM | 18.2 nM | 0.97 nM |  |  | 
23 | CC#CC(=O)N1C2CC[C@@H](C2)C1c1nc(-c2ccc(Oc3ccccc3)cc2)c2c(N)nccn12 (stereo partly shown) [Example 99] | 39 nM | > 1000 nM | 5.4 nM | 2.7 nM |  |  | 
24 | C=CC(=O)N1C2C[C@@H](C1c1nc(-c3ccc(Oc4ccccc4)cc3)c3c(N)nccn13)N(C(C)=O)C2 (stereo partly shown) [Example 110] | 36 nM | 198 nM | 1.2 nM | 0.21 nM |  |  | 
25 | C=CC(=O)N1C(c2nc(-c3ccc(C(=O)Nc4ccccn4)cc3)c3c(N)nccn23)[C@@H]2C[C@H]1CN2C(=O)OC(C)(C)C (stereo partly drawn) [Example 126, (1 S,4S)-tert-butyl-5-acryloyl-6-(8-amino-1-(4-(pyridin-2-carbamoyl)phenyl)imidazo[1,5-a]pyrazin-3-yl)-2,5-diazabicyclo[2.2.1]heptane-2-carboxylate] | 4.4 nM |  |  |  | 206 nM | 1.6 nM | 0.8 nM
